This is an account of results in US20220016079A1, “COMBINATION TREATMENT OF HIV INFECTIONS” (priority 2018, published 2022).

Data set [1] deals with latent HIV-1 in rCD4+ cells co-cultured with CD8+ cells. Put plainly: HIV-1 reactivation in ex vivo co-cultures of rCD4+ and CD8+ cells from an ART-treated HIV patient (HIV RNA in supernatant). In kind it is cell-based, human. The procedure:
The efficacy of IAPa, ICI or IAPa/ICI combinations in reversing HIV-1 latency was tested in HIV-1 infected rCD4+ cells co-cultured for 48 h with CD8+ cells from the same donor.
Method: Blood from one HIV-1-infected patient under ART was collected (500 mL) and CD4+ and CD8+ cells isolated using beads coated with specific antibodies following manufacturer's instruction (MojoSort™ Human Cell Isolation Kits from Biolegend). The CD4+ T cells were re-infected with HIV-1 (JR-CSF) (1 μg of p24), incubated for 3 days to allow establishment of infection, and treated with ART ([…]) for 7 days to ensure presence of enough latent HIV CD4+ cells (rCD4+) in the culture. Upon ART removal, rCD4 were then isolated following manufacturer's instruction (EasySep™ Human Resting CD4+ T Cell Isolation Kit). The isolated rCD4 were mixed with autologous (from the same patient) uninfected CD8+ T cells at a 1:1 ratio (100,000 cells) and incubated in duplicate for 48 h with different IAPa ([…]) or ICI (10 μg/ml) in monotherapy, or the IAPa/ICI combinations. Amounts of virions released from cells were quantified at the indicated time points by quantifying HIV RNA levels (HIV RNA copies/mL) in supernatant of cell culture using one-step reverse transcriptase quantitative real-time PCR (ABI custom TaqMan Assays-by-Design) according to the manufacturer's instructions. Primers were 5-[…]-3 and 5-[…]-3, and MGB probe 5-FAM-[…]-Q-3, where FAM is 6-carboxyfluorescein.

The subject of data set [2] is latent HIV-1 in resting CD4+ T cells. Put plainly: Ex vivo HIV-1 reactivation in human resting CD4+ T cells from ART-treated HIV-1-infected humanized BLT mice (HIV RNA in supernatant). The data set is classed as cell-based. As to the method:
The efficacy of IAPa, ICI or IAPa/ICI combinations in reversing HIV-1 latency was tested in resting CD4+ T cells derived from ART-treated HIV-1-infected humanized BLT mice.
Human resting CD4+ T cells from ten mice were isolated from blood, thymic organoid, lung, spleen, bone marrow, lymph nodes and liver. Isolated human resting CD4+ T cells were pooled, counted, split and treated in duplicate for 48 h with different IAPa (1 μM) or ICI (10 μg/ml) in monotherapy, or the IAPa/ICI combinations. Amounts of virions released from cells were quantified at the indicated time points by quantifying HIV RNA levels (HIV RNA copies/mL) in supernatant of cell culture using one-step reverse transcriptase quantitative real-time PCR (ABI custom TaqMan Assays-by-Design) according to the manufacturer's instructions. Primers were 5-[…]-3 and 5-[…]-3, and MGB probe 5-FAM-[…]-Q-3, where FAM is 6-carboxyfluorescein.
(§1) The experiment was carried out using the same agents as described above for Example 8.1 (with the exception that no birinapant was used).

Data set [3] has as its system latent HIV in resting CD4+ T-lymphocytes. Put plainly: HIV-1 reactivation in resting CD4+ T cells from PBMCs of three ART-treated HIV patients (HIV RNA in supernatant). In kind it is cell-based, human.
From the text: The experiments of this example analyzed the ability of IAPa, ICIs, or IAPa/ICI combinations at reactivating latent HIV in resting CD4+ T-lymphocytes isolated from peripheral blood monocytic cells (PBMCs) derived from HIV patients currently under ART.
Method: Resting CD4+ T cells were isolated from PBMCs of three ART-treated HIV patients by negative selection and magnetic separation (Easysep Mouse/Human Chimera Isolation Kits from […] technologies). Isolated resting CD4+ T cells (50,000 cells/50 μL) were treated in duplicate for 48h with different IAPa (1 μM) or ICI (10 μg/ml) in monotherapy, or the IAPa/ICI combinations. Amounts of virions released from cells were quantified at the indicated time points by quantifying HIV RNA levels (HIV RNA copies/mL) in supernatant of cell culture using one-step reverse transcriptase quantitative real-time PCR (ABI custom TaqMan Assays-by-Design) according to the manufacturer's instructions. Primers were 5-[…]-3 and 5-[…]-3, and MGB probe 5-FAM-[…]-Q-3, where FAM is 6-carboxyfluorescein.
as §1

Data set [4] deals with latent HIV-1 in 2D10 cells. Description: HIV-1 reactivation in latent GFP-reporter 2D10 cells, Debio 1143 and other LRAs alone or in combination. Conditions: LRA at single predetermined concentration with Debio 1143, already at 2 μM Debio 1143, 48 h. In kind it is cell-based. The procedure: We compared the efficacy of Debio-1143 at reversing HIV-1 latency with that of other LRAs. We then analyzed the cytotoxicity of Debio-1143 with that of the other LRAs on 2D10 cells. Drug titration was conducted.
Methods: HIV-1 latent GFP-reporter 2D10 cells (100,000 cells/100 μL) were treated in triplicate for 48 h with increasing concentrations of either only Debio-1143 or the LRAs (2000 nM or 20000 nM), or with Debio 1143 (2000 nM or 20000 nM) in combination with the LRAs at a single predetermined concentration (see Table 2). HIV reactivation was analyzed via GFP expression by flow cytometry.

The next data set deals with 2D10 cells. Description: Cytotoxicity by LDH assay in 2D10 cells. In kind it is cell-based. Conditions: 0 to 20 μM, 48 h. The procedure:
Drug titration was conducted.
For analysis of cell viability, cells (100,000 cells/100 μL) were treated in triplicate for 48 h with increasing concentrations of Debio-1143 or other known LRAs (0 to 20 μM). Cellular cytotoxicity was analyzed by Lactate dehydrogenase (LDH) assay. LDH is an oxidoreductase enzyme that catalyzes the interconversion of pyruvate and lactate. Cells release LDH into the bloodstream after tissue damage or red blood cell hemolysis. Since LDH is a fairly stable enzyme, it has been widely used to evaluate the presence of damage and toxicity of tissue and cells. In this particular, LDH reduces NAD to NADH, which is specifically detected by colorimetric (490 nm) assay.

In the next data set the target is T1, BIRC2 (Homo sapiens, UniProt Q13490).
T1 construct: endogenous in cells; host or cells: 2D10, 293T and CD4+ T cells
Put plainly: BIRC2 (cIAP1) degradation by Western blotting. In kind it is cell-based. The conditions noted are these: TNFα 10 ng/ml, 2D10 and 293T cells. The procedure:
It was investigated whether Debio-1143 reverses HIV-1 latency by acting on the NF-κB pathway. Canonical and non-canonical NF-κB signaling pathways play an important role in the reactivation of latent HIV-1, implicating its regulation as an important therapeutic strategy for latency reversal.
Method: 2D10 (A) or 293T (B) and CD4+ T cells (C) cells were treated with DMSO, Debio-1143 (1 μM) and TNFα (10 ng/ml) for the indicated times and analyzed by Western blotting for BIRC2 and IkBα protein expression using antibodies specifically detecting human BIRC2, human IkBα, or human CypA, such as commercially available (e.g. from R&D Systems, Cell Signaling, Santa Cruz Biotechnology, or other sources).
A general note: A western blot detects proteins with antibodies after separation by electrophoresis.

[5] abbreviates: IAPa 1 μM monotherapy (0.1% DMSO, no ICI), 48 h (Table 3).
Where [6] appears, read: IAPa 1 μM with Control IgG1, 48 h (Table 3).
Setting [7] is: IAPa 1 μM with Control IgG2, 48 h (Table 3).
Where [8] appears, read: IAPa 1 μM monotherapy (0.1% DMSO, no ICI), 48 h.
The mark [9] stands for this setting: IAPa 1 μM with Control IgG1, 48 h.
Setting [10] is: IAPa 1 μM with Control IgG2, 48 h.

T1 sequence (Q13490 whole entry): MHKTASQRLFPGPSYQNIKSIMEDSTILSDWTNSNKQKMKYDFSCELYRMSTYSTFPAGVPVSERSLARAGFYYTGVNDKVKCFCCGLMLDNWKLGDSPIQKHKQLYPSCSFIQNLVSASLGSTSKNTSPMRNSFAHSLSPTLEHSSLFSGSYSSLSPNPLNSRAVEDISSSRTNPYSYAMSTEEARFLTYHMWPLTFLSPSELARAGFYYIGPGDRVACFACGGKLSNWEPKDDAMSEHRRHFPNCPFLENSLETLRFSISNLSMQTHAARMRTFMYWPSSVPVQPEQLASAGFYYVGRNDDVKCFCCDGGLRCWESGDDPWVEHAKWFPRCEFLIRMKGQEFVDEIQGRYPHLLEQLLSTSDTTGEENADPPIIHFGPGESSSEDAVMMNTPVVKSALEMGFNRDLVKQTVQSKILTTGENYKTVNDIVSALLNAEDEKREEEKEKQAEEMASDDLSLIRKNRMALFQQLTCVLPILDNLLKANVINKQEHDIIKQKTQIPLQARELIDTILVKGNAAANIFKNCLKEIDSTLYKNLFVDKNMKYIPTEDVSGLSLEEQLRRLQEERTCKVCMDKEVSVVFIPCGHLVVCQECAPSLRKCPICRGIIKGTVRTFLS

Regarding `CC[C@H](NC(=O)[C@H](C)NC)C(=O)N1C[C@@H](O)C[C@H]1Cc1c(-c2[nH]c3cc(F)ccc3c2C[C@@H]2C[C@H](O)CN2C(=O)[C@H](CC)NC(=O)[C@H](C)NC)[nH]c2cc(F)ccc12` [Birinapant], the “latency reversal class (HIV RNA copies/ml in supernatant)” value (shortened to “latency reversal class”) in data set [1] (IAPa 1 μM monotherapy (0.1% DMSO, no ICI), 48 h (Table 4)) is reported as 3 (Subsequent classes were defined accordingly in steps of 500 RNA copies/ml); in data set [1] (IAPa 1 μM with Control IgG1, 48 h (Table 4)), 3 (Subsequent classes were defined accordingly in steps of 500 RNA copies/ml); in data set [1] (IAPa 1 μM with Control IgG2, 48 h (Table 4)), 3 (Subsequent classes were defined accordingly in steps of 500 RNA copies/ml).

As to `CN[C@@H](C)C(=O)N[C@H](C(=O)N1CCC[C@H]1C(=O)Nc1sc(-c2ncco2)nc1-c1ccccc1)C1CCCCC1` [CUDC-427], the “latency reversal class” value in data set [1] (setting [5]) was 3 (Subsequent classes were defined accordingly in steps of 500 RNA copies/ml); in data set [1] (setting [6]), 3 (Subsequent classes were defined accordingly in steps of 500 RNA copies/ml); in data set [1] (setting [7]), 3 (Subsequent classes were defined accordingly in steps of 500 RNA copies/ml); in data set [2] (setting [8]), 2 (Between 2501 and 5000 RNA copies/ml were classified as “2”); in data set [2] (setting [9]) it was 2 (Between 2501 and 5000 RNA copies/ml were classified as “2”); in data set [2] (setting [10]) it was 2 (Between 2501 and 5000 RNA copies/ml were classified as “2”). Further, the “latency reversal class” value in data set [3] (setting [8]) is 1 (Between 501 and 1000 RNA copies/ml were classified as “1”); in data set [3] (setting [9]), 1 (Between 501 and 1000 RNA copies/ml were classified as “1”); in data set [3] (setting [10]), 1 (Between 501 and 1000 RNA copies/ml were classified as “1”).

Turning to `Cc1sc2c(c1C)C(c1ccc(Cl)cc1)=N[C@@H](CC(=O)OC(C)(C)C)c1nnc(C)n1-2` [JQ1], in data set [4], the “degree of HIV reactivation in combination with Debio 1143” value (from here on “degree of HIV reactivation”) is recorded as “high degrees of HIV reactivation”.

As for `CN[C@@H](C)C(=O)N[C@H](C(=O)N1CCC[C@H]1c1nc(C(=O)c2ccc(F)cc2)cs1)C1CCCCC1` [LCL161], the “latency reversal class” value was 3 (Subsequent classes were defined accordingly in steps of 500 RNA copies/ml) in data set [1] (setting [5]); 2 (Subsequent classes were defined accordingly in steps of 500 RNA copies/ml) in data set [1] (setting [6]); 3 (Subsequent classes were defined accordingly in steps of 500 RNA copies/ml) in data set [1] (setting [7]); 2 (Between 2501 and 5000 RNA copies/ml were classified as “2”) in data set [2] (setting [8]); 2 (Between 2501 and 5000 RNA copies/ml were classified as “2”) in data set [2] (setting [9]); 2 (Between 2501 and 5000 RNA copies/ml were classified as “2”) in data set [2] (setting [10]). Moreover, the “latency reversal class” value was 1 (Between 501 and 1000 RNA copies/ml were classified as “1”) in data set [3] (setting [8]); 1 (Between 501 and 1000 RNA copies/ml were classified as “1”) in data set [3] (setting [9]); 1 (Between 501 and 1000 RNA copies/ml were classified as “1”) in data set [3] (setting [10]).

Turning to `CCC/C=C/C=C/C(=O)O[C@H]1/C(=C/C(=O)OC)C[C@H]2C[C@H]([C@@H](C)O)OC(=O)C[C@H](O)C[C@@H]3C[C@H](OC(C)=O)C(C)(C)[C@](O)(C[C@@H]4C/C(=C/C(=O)OC)C[C@H](/C=C/C(C)(C)[C@]1(O)O2)O4)O3` [bryostatin-1], the “cytotoxicity (LDH assay)” value in the data set with 2D10 cells is reported as “highly toxic”. The “degree of HIV reactivation” value in data set [4] was “high degrees of HIV reactivation”.

`CN1C(=O)[C@@]23C[C@]4([C@]56C[C@@]78SS[C@@](CO)(C(=O)N7[C@H]5Nc5ccccc56)N(C)C8=O)c5ccccc5N[C@@H]4N2C(=O)[C@]1(CO)SS3` [chaetocin]: the “cytotoxicity (LDH assay)” value in the data set with 2D10 cells is recorded as “highly toxic”.

With `Nc1ccccc1NC(=O)c1ccc(CNC(=O)OCc2cccnc2)cc1` [entinostat], in data set [4], the “degree of HIV reactivation” value is reported as “high degrees of HIV reactivation”.

As for `Cc1[nH]c2ccccc2c1CCNCc1ccc(/C=C/C(=O)NO)cc1` [panobinostat], in the data set on 2D10 cells, the “cytotoxicity (LDH assay)” value is reported as “highly toxic”.

Take `O=C(CCCCCCC(=O)Nc1ccccc1)NO` [vorinostat]: in data set [4], the “degree of HIV reactivation” value is “high degrees of HIV reactivation”.

As for TNFα [reference compound], the BIRC2 degradation entry on BIRC2 is on record as “not”.
